# Laboratory results taken from patent US7772241B2, “Variolin derivatives and their use as antitumor agents” (Pharma Mar S.A., priority 2001, dated 2010).
# Like-named read-outs stand apart in the source and are kept apart here.
# What was measured:
# [1] = system: SK-BR-3; experiment: Inhibition of cells growth by colorimetric (SRB) assay, SK-BR-3
# Summary of the method: (§1)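 Read-out is sulforhodamine B protein stain (OD 490 nm) after cold TCA fixation, following 48 h continuous exposure to samples spanning 10 to 10^−8 μg/ml.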
# [2] = system: LoVo-Dox; experiment: Inhibition of cells growth by colorimetric (SRB) assay, LoVo-Dox
# Summary of the method: as §1
# [3] = system: HeLa; experiment: Inhibition of cells growth by colorimetric (SRB) assay, HeLa
# Description: (§2) The finality of these assays is to interrupt the growth of a “in vitro” tumor cell culture by means a continued exhibition of the cells to the sample to be testing.
# (§3) This form of the assay employs 96 well cell culture microplates of 9 mm diameter (Faircloth, 1988; Mosmann, 1983). Most of the cell lines are obtained from American Type Culture Collection (ATCC) derived from different human cancer types.
# (§4) Cells are maintained in RPMI 1640 10% FBS, supplemented with 0.1 g/l penicillin and 0.1 g/l streptomycin sulphate and then incubated at 37° C., 5% CO2 and 98% humidity. For the experiments, cells were harvested from subconfluent cultures using trypsin and resuspended in fresh medium before plating.
# (§5) Cells are seeded in 96 well microtiter plates, at 5×10^3 cells per well in aliquots of 195 μl medium, and they are allowed to attach to the plate surface by growing in drug free medium for 18 hours. Afterward, samples are added in aliquots of 5 μl in a ranging from 10 to 10^−8 μg/ml, dissolved in DMSO/EtOH/PBS (0.5:0.5:99). After 48 hours exposure, the antitumor effect are measured by the SRB methodology: cells are fixed by adding 50 μl of cold 50% (wt/vol) trichloroacetic acid (TCA) and incubating for 60 minutes at 4° C. Plates are washed with deionized water and dried. One hundred μl of SRB solution (0.4% wt/vol in 1% acetic acid) is added to each microtiter well and incubated for 10 minutes at room temperature. Unbound SRB is removed by washing with 1% acetic acid. Plates are air dried and bound stain is solubilized with Tris buffer. Optical densities are read on a automated spectrophotometric plate reader at a single wavelength of 490 nm.
# (§6) The values for mean +/−SD of data from triplicate wells are calculated. Some parameters for cellular responses can be calculated: GI=growth inhibition, TGI=total growth inhibition (cytostatic effect) and LC=cell killing (cytotoxic effect).
# [4] = system: SK-MEL-28; experiment: Inhibition of cells growth by colorimetric (SRB) assay, SK-MEL-28
# Summary of the method: as §1
# [5] = system: LoVo; experiment: Inhibition of cells growth by colorimetric (SRB) assay, LoVo
# Summary of the method: as §1
# [6] = system: LNCaP; experiment: Inhibition of cells growth by colorimetric (SRB) assay, LNCaP
# Summary of the method: as §1
# [7] = system: HeLa-APL; experiment: Inhibition of cells growth by colorimetric (SRB) assay, HeLa-APL
# Description: as §2, §3, §4, §5, §6
# [8] = system: IGROV-1; experiment: Inhibition of cells growth by colorimetric (SRB) assay, IGROV-1
# Summary of the method: as §1
# [9] = system: HT-29; experiment: Inhibition of cells growth by colorimetric (SRB) assay, HT-29; conditions: for GI50 / CC50: Homo sapiens, HT-29, 48 h
# Summary of the method: as §1
# [10] = system: DU-145; experiment: Inhibition of cells growth by colorimetric (SRB) assay, DU-145
# Summary of the method: as §1
# [11] = system: K-562; experiment: Inhibition of cells growth by colorimetric (SRB) assay, K-562
# Summary of the method: as §1
# [12] = system: IGROV-ET; experiment: Inhibition of cells growth by colorimetric (SRB) assay, IGROV-ET
# Summary of the method: as §1
# [13] = system: A-549; experiment: Inhibition of cells growth by colorimetric (SRB) assay, A-549; conditions: for GI50 / CC50: Homo sapiens, A549, 48 h
# Summary of the method: as §1
# [14] = system: PANC-1; experiment: Inhibition of cells growth by colorimetric (SRB) assay, PANC-1
# Summary of the method: as §1
compound,measurement,setting,value
CSc1nccc(-c2c3cccnc3n3c(NC(C)=O)nccc23)n1 [Compound 69],GI50,"[1]; Homo sapiens, SK-BR-3, 48 h, read-out: SK-BR-3 GI50, SRB assay, 48 hours exposure",1.23 µM
same,CC50,"[1]; Homo sapiens, SK-BR-3, 48 h, read-out: SK-BR-3 LC50, SRB assay, 48 hours exposure",24.8 µM
same,SK-BR-3 TGI,"[1]; SRB assay, 48 hours exposure",6.25E−06
same,GI50,"[2]; Homo sapiens, 48 h, read-out: LOVO-DOX GI50, SRB assay, 48 hours exposure",2.04 µM
same,CC50,"[2]; Homo sapiens, 48 h, read-out: LOVO-DOX LC50, SRB assay, 48 hours exposure",28.5 µM
same,LOVO-DOX TGI,"[2]; SRB assay, 48 hours exposure",9.79E−06
same,GI50,"[3]; Homo sapiens, HeLa, 48 h, read-out: HELA GI50, SRB assay, 48 hours exposure",0.00716 µM
same,HELA TGI,"[3]; SRB assay, 48 hours exposure",3.60E−08
same,GI50,"[4]; Homo sapiens, SK-MEL-28, 48 h, read-out: MEL-28 GI50, SRB assay, 48 hours exposure",2.19 µM
same,CC50,"[4]; Homo sapiens, SK-MEL-28, 48 h, read-out: MEL-28 LC50, SRB assay, 48 hours exposure",16.4 µM
same,MEL-28 TGI,"[4]; SRB assay, 48 hours exposure",6.51E−06
same,GI50,"[5]; Homo sapiens, LoVo, 48 h, read-out: LOVO GI50, SRB assay, 48 hours exposure",1.22 µM
same,CC50,"[5]; Homo sapiens, LoVo, 48 h, read-out: LOVO LC50, SRB assay, 48 hours exposure",28.5 µM
same,LOVO TGI,"[5]; SRB assay, 48 hours exposure",7.28E−06
same,GI50,"[6]; Homo sapiens, LNCaP, 48 h, read-out: LN-caP GI50, SRB assay, 48 hours exposure",1.08 µM
same,CC50,"[6]; Homo sapiens, LNCaP, 48 h, read-out: LN-caP LC50, SRB assay, 48 hours exposure",28.5 µM
same,LN-caP TGI,"[6]; SRB assay, 48 hours exposure",4.77E−06
same,GI50,"[7]; Homo sapiens, 48 h, read-out: HELA-APL GI50, SRB assay, 48 hours exposure",0.00594 µM
same,CC50,"[7]; Homo sapiens, 48 h, read-out: HELA-APL LC50, SRB assay, 48 hours exposure",0.38 µM
same,HELA-APL TGI,"[7]; SRB assay, 48 hours exposure",2.45E−08
same,GI50,"[8]; Homo sapiens, IGROV-1, 48 h, read-out: IGROV GI50, SRB assay, 48 hours exposure",2.13 µM
same,CC50,"[8]; Homo sapiens, IGROV-1, 48 h, read-out: IGROV LC50, SRB assay, 48 hours exposure",28.5 µM
same,IGROV TGI,"[8]; SRB assay, 48 hours exposure",8.53E−06
same,GI50,"[9]; read-out: GI50 HT-29, SRB assay, 48 hours exposure",14.3 µM
same,GI50,"[9]; read-out: HT-29 GI50, SRB assay, 48 hours exposure",0.887 µM
same,CC50,"[9]; read-out: HT-29 LC50, SRB assay, 48 hours exposure",28.5 µM
same,CC50,"[9]; read-out: LC50 HT-29, SRB assay, 48 hours exposure",28.6 µM
same,HT-29 TGI,"[9]; SRB assay, 48 hours exposure",6.51E−06
same,TGI HT-29,"[9]; SRB assay, 48 hours exposure",2.86E−05
same,GI50,"[10]; Homo sapiens, DU-145, 48 h, read-out: DU-145 GI50, SRB assay, 48 hours exposure",0.985 µM
same,CC50,"[10]; Homo sapiens, DU-145, 48 h, read-out: DU-145 LC50, SRB assay, 48 hours exposure",23.7 µM
same,DU-145 TGI,"[10]; SRB assay, 48 hours exposure",4.59E−06
same,GI50,"[11]; Homo sapiens, K562, 48 h, read-out: K-562 GI50, SRB assay, 48 hours exposure",12.8 µM
same,CC50,"[11]; Homo sapiens, K562, 48 h, read-out: K-562 LC50, SRB assay, 48 hours exposure",28.5 µM
same,K-562 TGI,"[11]; SRB assay, 48 hours exposure",2.85E−05
same,GI50,"[12]; Homo sapiens, 48 h, read-out: IGROV-ET GI50, SRB assay, 48 hours exposure",7.31 µM
same,CC50,"[12]; Homo sapiens, 48 h, read-out: IGROV-ET LC50, SRB assay, 48 hours exposure",28.5 µM
same,IGROV-ET TGI,"[12]; SRB assay, 48 hours exposure",2.18E−05
same,GI50,"[13]; read-out: A-549 GI50, SRB assay, 48 hours exposure",0.517 µM
same,CC50,"[13]; read-out: A-549 LC50, SRB assay, 48 hours exposure",2.75 µM
same,GI50,"[13]; read-out: GI50 A-549, SRB assay, 48 hours exposure",5.71 µM
same,CC50,"[13]; read-out: LC50 A-549, SRB assay, 48 hours exposure",28.6 µM
same,A-549 TGI,"[13]; SRB assay, 48 hours exposure",1.19E−06
same,TGI A-549,"[13]; SRB assay, 48 hours exposure",2.29E−05
same,GI50,"[14]; Homo sapiens, PANC-1, 48 h, read-out: PANC-1 GI50, SRB assay, 48 hours exposure",4.99 µM
same,CC50,"[14]; Homo sapiens, PANC-1, 48 h, read-out: PANC-1 LC50, SRB assay, 48 hours exposure",28.5 µM
same,PANC-1 TGI,"[14]; SRB assay, 48 hours exposure",1.91E−05
